Experimental data from PubChem BioAssay AID1259407 (Chemical Carcinogenesis Research Information System (CCRIS), 2018).
The source made the active and inactive calls. The rule behind the calls is not given here.

Tested on: CCRIS mutagenicity, Ames/micronucleus/aberration tests
Test: CCRIS mutagenicity studies

Measured: mutagenic call

C=CC#N
inactive: End Point: IN VIVO CHROMOSOMAL ABERRATIONS, Test System: BONE MARROW CELLS, Species: MOUSE, Strain/Sex: C57B1/6/MALE, Route: IP INJECTION (ONCE) inactive; negative | Test System: AMES SALMONELLA TYPHIMURIUM, Strain/Indicator: TA97, Metabolic Activation: HAMSTER LIVER S-9, AROCLOR 1254 (10%), Method: PREINCUBATION inactive; negative | Test System: AMES SALMONELLA TYPHIMURIUM, Strain/Indicator: TA97, Metabolic Activation: NONE, Method: PREINCUBATION inactive; negative | Test System: AMES SALMONELLA TYPHIMURIUM, Strain/Indicator: TA97, Metabolic Activation: NONE, Method: STANDARD PLATE inactive; negative | Test System: AMES SALMONELLA TYPHIMURIUM, Strain/Indicator: TA97, Metabolic Activation: RAT LIVER S-9, AROCLOR 1254 (10%), Method: PREINCUBATION inactive; negative | Test System: AMES SALMONELLA TYPHIMURIUM, Strain/Indicator: TA97, Metabolic Activation: RAT, LIVER, S-9, AROCLOR 1254, Method: STANDARD PLATE inactive; negative | Test System: AMES SALMONELLA TYPHIMURIUM, Strain/Indicator: TA97, Metabolic Activation: S-9, Method: STANDARD PLATE inactive; negative | Test System: AMES SALMONELLA TYPHIMURIUM, Strain/Indicator: TA98, Metabolic Activation: HAMSTER LIVER S-9, AROCLOR 1254 (10%), Method: PREINCUBATION inactive; negative | Test System: AMES SALMONELLA TYPHIMURIUM, Strain/Indicator: TA98, Metabolic Activation: NONE, Method: PREINCUBATION inactive; negative | Test System: AMES SALMONELLA TYPHIMURIUM, Strain/Indicator: TA98, Metabolic Activation: NONE, Method: STANDARD PLATE inactive; negative | Test System: AMES SALMONELLA TYPHIMURIUM; Strain/Indicator: TA98; Metabolic Activation: RAT LIVER S-9, AROCLOR 1254 910%), Method: PREINCUBATION inactive; negative | Test System: AMES SALMONELLA TYPHIMURIUM, Strain/Indicator: TA98, Metabolic Activation: RAT, LIVER, S-9, AROCLOR 1254, Method: STANDARD PLATE inactive; negative | Test System: AMES SALMONELLA TYPHIMURIUM, Strain/Indicator: TA98, Metabolic Activation: S-9, Method: STANDARD PLATE inactive; negative | Test System: AMES SALMONELLA TYPHIMURIUM, Strain/Indicator: TA100, Metabolic Activation: HAMSTER LIVER S-9, AROCLOR 1254 (5%), Method: PREINCUBATION inactive; negative | Test System: AMES SALMONELLA TYPHIMURIUM, Strain/Indicator: TA100, Metabolic Activation: HAMSTER LIVER S-9, AROCLOR 1254 (5 OR 10%), Method: PREINCUBATION inactive; negative | Test System: AMES SALMONELLA TYPHIMURIUM, Strain/Indicator: TA100, Metabolic Activation: NONE, Method: PREINCUBATION inactive; negative | Test System: AMES SALMONELLA TYPHIMURIUM, Strain/Indicator: TA100, Metabolic Activation: NONE, Method: STANDARD PLATE inactive; negative | Test System: AMES SALMONELLA TYPHIMURIUM, Strain/Indicator: TA100, Metabolic Activation: RAT LIVER S-9, AROCLOR 1254 (5, 10, OR 30%), Method: PREINCUBATION inactive; negative | Test System: AMES SALMONELLA TYPHIMURIUM, Strain/Indicator: TA100, Metabolic Activation: RAT LIVER S-9, AROCLOR 1254 (5/%, 10% OR 30%), Method: PREINCUBATION inactive; negative | Test System: AMES SALMONELLA TYPHIMURIUM, Strain/Indicator: TA100, Metabolic Activation: RAT LIVER S-9, AROCLOR 1254 (10%), Method: PREINCUBATION inactive; negative | Test System: AMES SALMONELLA TYPHIMURIUM, Strain/Indicator: TA100, Metabolic Activation: RAT, LIVER, S-9, AROCLOR 1254, Method: STANDARD PLATE inactive; negative | Test System: AMES SALMONELLA TYPHIMURIUM, Strain/Indicator: TA100, Metabolic Activation: S-9, Method: STANDARD PLATE inactive; negative | Test System: AMES SALMONELLA TYPHIMURIUM, Strain/Indicator: TA102, Metabolic Activation: NONE, Method: STANDARD PLATE inactive; negative | Test System: AMES SALMONELLA TYPHIMURIUM, Strain/Indicator: TA102, Metabolic Activation: S-9, Method: STANDARD PLATE inactive; negative
active: End Point: IN VITRO CHROMOSOMAL ABERRATIONS, Test System: CHL CELLS, Metabolic Activation: RAT, LIVER, S-9, SODIUM PHENOBARBITAL AND 5,6-BENZOFLAVONE active; positive (structural changes) | Test System: AMES SALMONELLA TYPHIMURIUM, Strain/Indicator: TA100, Metabolic Activation: HAMSTER LIVER S-9, AROCLOR 1254 (10% OR 30%), Method: PREINCUBATION active; positive | Test System: AMES SALMONELLA TYPHIMURIUM, Strain/Indicator: TA100, Metabolic Activation: HAMSTER LIVER S-9, AROCLOR 1254 (10%), Method: PREINCUBATION active; positive | Test System: AMES SALMONELLA TYPHIMURIUM, Strain/Indicator: TA100, Metabolic Activation: HAMSTER LIVER S-9, AROCLOR 1254 (30%), Method: PREINCUBATION active; positive | Test System: AMES SALMONELLA TYPHIMURIUM, Strain/Indicator: TA100, Metabolic Activation: HAMSTER, LIVER, S-9, AROCLOR 1254 (5, 10, 20%), Method: PREINCUBATION active; positive | Test System: AMES SALMONELLA TYPHIMURIUM, Strain/Indicator: TA100, Metabolic Activation: HAMSTER, LIVER, S-9, AROCLOR 1254 (20%), Method: PREINCUBATION active; positive | Test System: AMES SALMONELLA TYPHIMURIUM, Strain/Indicator: TA100, Metabolic Activation: RAT, LIVER, S-9, AROCLOR 1254, Method: FLUCTUATION active; positive | Test System: AMES SALMONELLA TYPHIMURIUM, Strain/Indicator: TA1530, Metabolic Activation: RAT, LIVER, S-9, 3-METHYLCHOLANTHRENE OR PCB OR PHENOBARBITAL, Method: FLUCTUATION active; positive | Test System: AMES SALMONELLA TYPHIMURIUM, Strain/Indicator: TA1530, Metabolic Activation: RAT, LIVER, S-9, PCB OR PHENOBARBITAL, Method: DESICCATOR active; positive
